This note sets out measurements from patent publication US20090215783A1, “COMPOSITION FOR INDUCTION OR INHIBITION OF STEM CELL DIFFERENTIATION” (CHOONGWAE PHARMA CORPORATION, priority 2006, published 2009).

Test [1] concerns Mouse embryonic stem (ES) cells, TC1. As to the kind of experiment: Cardiomyogenesis modulating activity assay (alpha-MHC promoter EGFP, embryoid bodies, FACS/fluorescence microscopy). Particulars: embryoid bodies treated for 5 days, FACS. It is filed as cell-based. The method, then: a. Cell culture: Mouse embryonic stem (ES) cells, TC1 derived from 129/S6 strain were cultured on irradiated feeder layer in the culture medium which is high-glucose DMEM (Gibco) BRL, Germany) supplemented with 15% FBS (Hyclone), 0.1 mM beta-mercaptoethanol, […] sodium pyruvate, 1 mM L-glutamine and 1× non-essential amino acids.
b. Establishment of alpha-MHC stably transformed ES cell line: A construct (FIG. 8) containing 1.8 kb promoter sequence of the mouse alpha-MHC gene between EcoRI and SalI sites of pEGFP-1 (Clontech Laboratories, Inc, CA, USA) was linearized at XhoI site, and was introduced into mouse ES cells, TC1, using the Gene Pulser II (BioRad, MA). A selection medium containing G418 was applied for two weeks from 24 hours after electroporation. The selected ES cell clones were harvested and expanded on the feeder cell layer. The green fluorescence-expressing clones when differentiated into cardiomyocytes were used in this experiment.
c. Cardiomyogenesis modulating activity assay: Embryoid body (EB) was formed by hanging drop culture using about a number of 600 (six hundred) ES cells for two days and it was further expanded by culturing in suspension condition on a Petri-dish for another two days. Then each EB was plated on a well of 96 well culture plates. Test compounds were dissolved in DMSO and diluted with culture media (final 0.05% DMSO) and EB was treated with test compound for 5 days. Culture medium was changed every three days after plating. Expression level of EGFP was measured with FACS (Beckman). For FACS analysis, differentiating cells were dissociated with trypsin. For the determination of the extent of differentiation, EB was observed and photographed with an inverted fluorescence microscope (Zeiss, Germany). Number of beating EBs was counted under the microscope and recorded once daily.

Test [2] concerns human bone marrow derived-mesenchymal stem cells (hBMMSC). As to the kind of experiment: Osteogenesis modulating activity assay by test compound alone (ALP activity). It is filed as cell-based. Particulars: Homo sapiens, 168 h; hBMMSC, 20 μM test compound alone, six to seven days; read-out: Osteogenesis: fold change of ALP activity compared with DMSO control. As to the method: Cell culture: Human bone marrow derived-mesenchymal stem cells (hBMMSC) were isolated from normal subjects.
Osteogenesis modulating activity assay by test compound alone: hBMMSC were cultivated in the culture medium and cells were seeded into 96-well culture plates and test compounds were dissolved in DMSO and diluted with culture media (final 0.01% DMSO) and added into the media (final concentration of test compound was 20 μM) and cultured in the CO2 incubator (37° C., 5% CO2). Culture medium was changed every two days with fresh one and compound was treated again whenever medium was changed. Six to seven days after incubation, Alkaline phosphatase activity of cell lysates was measured by colorimetry. For the determination of mineralization within the cells, Von Kossa staining or Alizarin Red S assay was performed 10-14 days after incubation.

Structures are written as SMILES.

As for `CCCCNC(=O)N1[C@H]2CN(CCc3ccc(OC)cc3)C(=O)[C@H](Cc3ccc(O)cc3)N2C(=O)CN1Cc1ccc(C)cc1` [#96], the “Cardiomyogenesis: fold change of EGFP expression level compared with DMSO control” value (“Cardiomyogenesis: fold change” below) in test [1] was 0.54 fold. Further, in test [2], the fold induction at 20 µM came to 0.77.

Consider `C=CCN1CC(=O)N2[C@@H](c3ccccc3)C(=O)N(CCc3ccccc3)C[C@@H]2N1C(=O)NCc1ccccc1` [#90], for which the “Cardiomyogenesis: fold change” value in test [1] amounted to 2.10 fold. For the same compound, the fold induction at 20 µM in test [2] came to 0.51.

As to `C#CCNC(=O)N1[C@H]2CN(Cc3cccc4ccccc34)C(=O)[C@H](Cc3ccc(O)cc3)N2C(=O)CN1C` [#12], the “Cardiomyogenesis: fold change” value in test [1] is listed as 1.27 fold. The fold induction at 20 µM in test [2] came out at 0.76.

Regarding `C=CCN1CC(=O)N2[C@@H](Cc3ccc(OCc4ccccc4)cc3)C(=O)N(Cc3ccc(F)cc3)C[C@@H]2N1C(=O)NCc1ccccc1` [#83], the “Cardiomyogenesis: fold change” value in test [1] worked out at 2.02 fold. For the same compound, the fold induction at 20 µM in test [2] is 0.36.

Consider `O=C1[C@H](CC2CCCCC2)N2C(=O)CN(Cc3ccccc3)N(C(=O)NCc3ccccc3)[C@H]2CN1CCc1ccc(Cl)cc1` [#79], for which, in test [1], the “Cardiomyogenesis: fold change” value is 1.67 fold. The fold induction at 20 µM in test [2] worked out at 0.58.

`CN1CC(=O)N2[C@@H](Cc3ccc(Cl)cc3)C(=O)N(CCCc3ccccc3)C[C@@H]2N1C(=O)NCc1ccccc1` [#29]: in test [1], the “Cardiomyogenesis: fold change” value is listed as 1.71 fold. Further, the fold induction at 20 µM in test [2] worked out at 0.91.

Turning to `CN1C(=O)N2C(CN(CCSCc3ccccc3)C(=O)[C@@H]2Cc2ccc(O)cc2)N1C(=O)NCc1ccccc1` (some centres unmarked) [#108], in test [1], the “Cardiomyogenesis: fold change” value was 1.19 fold. Besides, in test [2], the fold induction at 20 µM amounted to 0.94.

With `CCCCNC(=O)N1[C@H]2CN(CCCCc3ccccc3)C(=O)[C@H](C(C)CC)N2C(=O)CN1Cc1cccc(F)c1` (some centres unmarked) [#41], the “Cardiomyogenesis: fold change” value in test [1] worked out at 2.15 fold. Moreover, the fold induction at 20 µM in test [2] came out at 0.6.

As to `CN1CC(=O)N2[C@@H](Cc3ccc(F)cc3)C(=O)N(CCc3ccccc3)C[C@@H]2N1C(=O)NCc1ccccc1` [#38], the “Cardiomyogenesis: fold change” value in test [1] is on record as 0.69 fold. Also, in test [2], the fold induction at 20 µM worked out at 0.48.

`CC(C)C[C@H]1C(=O)N(CC(=O)N(Cc2ccccc2)c2ccccc2)CC2N1C(=O)CN(C)N2C(=O)NCc1ccccc1` (some centres unmarked) [#2]: the “Cardiomyogenesis: fold change” value in test [1] is given as 1.11 fold. Further, the fold induction at 20 µM in test [2] was 1.09.

As for `CN1CC(=O)N2C(CN(Cc3ccc(Cl)c(Cl)c3)C(=O)[C@H]2Cc2ccc(O)cc2)N1C(=O)NCc1cccnc1` (some centres unmarked) [#6], the “Cardiomyogenesis: fold change” value in test [1] is 0.47 fold. Further, the fold induction at 20 µM in test [2] came to 0.51.

As for `CC(C)CN1C[C@H]2N(C(=O)CN(C)N2C(=O)NCc2ccccc2)[C@@H](Cc2ccc(O)cc2)C1=O` [#15], the “Cardiomyogenesis: fold change” value in test [1] is on record as 0.41 fold. Besides, the fold induction at 20 µM in test [2] is 1.12.

`O=C1[C@H](Cc2ccc(F)c(F)c2)N2C(=O)CN(Cc3ccccc3)N(C(=O)NCc3ccccc3)C2CN1CCc1ccc(Cl)cc1` (some centres unmarked) [#81]: the “Cardiomyogenesis: fold change” value in test [1] stood at 0.81 fold. For the same compound, the fold induction at 20 µM in test [2] stood at 1.84.

With `O=C1[C@H](CCc2ccccc2)N2C(=O)CN(Cc3ccc(F)cc3)N(C(=O)NCc3ccccc3)[C@H]2CN1Cc1cccc(C(F)(F)F)c1` [#64], in test [1], the “Cardiomyogenesis: fold change” value was determined as 2.83 fold. The fold induction at 20 µM in test [2] worked out at 0.79.

On to `C=CCN1CC(=O)N2C(Cc3ccc(O)cc3)C(=O)N(Cc3ccc(F)cc3F)C[C@H]2N1C(=O)NCc1ccccc1` (some centres unmarked) [#13], for which the “Cardiomyogenesis: fold change” value in test [1] was 1.02 fold. For the same compound, in test [2], the fold induction at 20 µM came to 0.47.

For the compound `CN1CC(=O)N2[C@H](Cc3ccccc3)C(=O)N(CCc3ccccc3)C[C@H]2N1C(=O)NCc1ccccc1` [#31], the “Cardiomyogenesis: fold change” value in test [1] is 1.10 fold. Besides, the fold induction at 20 µM in test [2] is 1.

Consider `C=CCOC(=O)NCCC[C@@H]1C(=O)N(Cc2ccc(OC)cc2)CC2N1C(=O)CN(C)N2C(=O)NCc1ccccc1` (some centres unmarked) [#26], for which the “Cardiomyogenesis: fold change” value in test [1] was found to be 1.74 fold. Also, in test [2], the fold induction at 20 µM came to 1.01.

As for `COc1ccc(CN2C[C@H]3N(C(=O)CN(C)N3C(=O)NCc3ccccc3)[C@@H](Cc3ccccc3)C2=O)cc1` [#22], in test [1], the “Cardiomyogenesis: fold change” value is reported as 1.16 fold. Further, the fold induction at 20 µM in test [2] came out at 0.7.

For `CC(C)C[C@H]1C(=O)N(CC(=O)N2c3ccccc3Oc3ccccc32)C[C@H]2N1C(=O)CN(C)N2C(=O)NCc1ccccc1` [#5], in test [1], the “Cardiomyogenesis: fold change” value was 0.36 fold. For the same compound, in test [2], the fold induction at 20 µM turned out to be 0.29.

Consider `COc1ccc(CN2CC3N(C(=O)CN(C)N3C(=O)NCc3ccccc3)C(Cc3ccc(O)cc3)C2=O)cc1` (centres unmarked) [#19], for which the “Cardiomyogenesis: fold change” value in test [1] is recorded as 3.03 fold. In test [2], the fold induction at 20 µM stood at 0.7.

`CCCC[C@H]1C(=O)N(CCc2ccc(OC)c(OC)c2)C[C@H]2N1C(=O)N(C)N2C(=O)NCc1ccccc1` [#102]: in test [1], the “Cardiomyogenesis: fold change” value was found to be 1.01 fold. The fold induction at 20 µM in test [2] was found to be 1.61.

Turning to `CC(C)CN1C[C@H]2N(C(=O)CN(C)N2C(=O)NCc2ccccc2)[C@@H](c2ccccc2)C1=O` [#18], in test [1], the “Cardiomyogenesis: fold change” value is 2.01 fold. The fold induction at 20 µM in test [2] was 0.93.

As for `CC(C)C[C@@H]1C(=O)N(Cc2cccc(C(F)(F)F)c2)C[C@@H]2N1C(=O)CN(Cc1ccc(F)cc1)N2C(=O)NCc1ccccc1` [#63], the “Cardiomyogenesis: fold change” value in test [1] worked out at 0.47 fold. For the same compound, the fold induction at 20 µM in test [2] came out at 0.41.

With `CN1CC(=O)N2C(Cc3ccc(OCc4ccccc4)cc3)C(=O)N(CCCc3ccccc3)CC2N1C(=O)NCc1ccccc1` (centres unmarked) [#27], the “Cardiomyogenesis: fold change” value in test [1] amounted to 0.52 fold. Also, the fold induction at 20 µM in test [2] was determined as 0.96.

For the compound `CC[C@H]1C(=O)N(Cc2cccc(C(F)(F)F)c2)C[C@H]2N1C(=O)CN(Cc1ccc(F)cc1)N2C(=O)NCc1ccccc1` [#68], the “Cardiomyogenesis: fold change” value in test [1] was determined as 0.69 fold. Also, in test [2], the fold induction at 20 µM worked out at 0.91.

Take `CCCN1CC(=O)N2C(Cc3ccc(O)cc3)C(=O)N(CCC(C)C)CC2N1C(=O)NCc1ccccc1` (centres unmarked) [#92]: the “Cardiomyogenesis: fold change” value in test [1] came to 2.13 fold. Further, the fold induction at 20 µM in test [2] amounted to 0.7.

With `CCC[C@H]1C(=O)N(Cc2ccc(OC)cc2)C[C@H]2N1C(=O)CN(C)N2C(=O)NCc1ccccc1` [#24], the “Cardiomyogenesis: fold change” value in test [1] is on record as 1.57 fold. The fold induction at 20 µM in test [2] was 0.85.

In the case of `NC(=O)CC1C(=O)N(CCSCc2ccccc2)CC2N1C(=O)CN(Cc1ccc(F)cc1)N2C(=O)NCc1ccccc1` (centres unmarked) [#110], in test [1], the “Cardiomyogenesis: fold change” value is 1.18 fold. The fold induction at 20 µM in test [2] was determined as 0.63.

With `O=C1[C@H](CC2CCCCC2)N2C(=O)CN(Cc3ccc(F)cc3)N(C(=O)NCc3ccccc3)[C@H]2CN1Cc1cccc(C(F)(F)F)c1` [#69], in test [1], the “Cardiomyogenesis: fold change” value was determined as 1.69 fold. Moreover, the fold induction at 20 µM in test [2] was 0.71.

With `CCCCNC(=O)N1[C@H]2CN(CCCCc3ccccc3)C(=O)[C@H](CCC(=O)O)N2C(=O)CN1Cc1cccc(F)c1` [#44], the “Cardiomyogenesis: fold change” value in test [1] is listed as 1.98 fold. Besides, in test [2], the fold induction at 20 µM stood at 0.56.

`O=C1[C@H](Cc2ccc(Cl)cc2)N2C(=O)CN(Cc3ccc(F)cc3)N(C(=O)NCc3ccccc3)[C@H]2CN1Cc1cccc(C(F)(F)F)c1` [#72]: in test [1], the “Cardiomyogenesis: fold change” value was 1.76 fold. Further, the fold induction at 20 µM in test [2] came out at 0.84.

Turning to `CCC(CC)N1CC2N(C(=O)N(C)N2C(=O)NCc2ccccc2)[C@@H](Cc2ccc(O)cc2)C1=O` (some centres unmarked) [#104], the “Cardiomyogenesis: fold change” value in test [1] is 0.62 fold. Further, the fold induction at 20 µM in test [2] was 1.42.

As for `C=CCN1CC(=O)N2[C@@H](Cc3ccc(F)cc3)C(=O)N(Cc3ccc(F)cc3)C[C@@H]2N1C(=O)NCc1ccccc1` [#85], in test [1], the “Cardiomyogenesis: fold change” value was found to be 1.65 fold. Moreover, the fold induction at 20 µM in test [2] is 0.62.

For the compound `CCC(C)[C@H]1C(=O)N(Cc2cccc(F)c2)C[C@H]2N1C(=O)CN(Cc1ccccc1)N2C(=O)NCc1ccccc1` (some centres unmarked) [#57], the “Cardiomyogenesis: fold change” value in test [1] was 0.43 fold. For the same compound, in test [2], the fold induction at 20 µM was determined as 0.64.
